Data set [1] in a line: Blood workup after HS-72 treatment. Format: in vivo. As to conditions: wild-type mice, compared to control mice. The method, then:
(§1) HS-72 in vivo MTD and blood workup: The 5 cohorts consisted of 3 mice each given HS-72 BiW and administered IP in DMSO at 1, 5, 10, 20 and 30 mpk using female FVBs aged to 10 weeks. Body Mass was measured weekly and the mice were monitored for signs of toxicity as per MP1U standard protocol. For blood analysis, 4 mice were injected IP with HS-72 on day 1 and 4, with blood drawn on day 5. 4 mice receiving no treatment were used as controls.

The target in data set [2] is T1, Hsp70i (Homo sapiens, UniProt P0DMV8). Nature of the data set: Thermofluor assay, purified Hsp70i. As to conditions: for decrease of ATP bound Hsp70i Tm: in presence of ATP; for decrease of the Tm of Hsp70i: no nucleotide. Format: binding. Set-up: Full length Hsp70 (black arrow) and tryptic fragments (blue arrows); His tag (cleaved yes); made in house. The method, then: Protein Purification: Plasmids were provided for human HSPA1A, HSPA8, and HSPA1A C306D. Plasmids were transformed in Rosetta competent cells and single colonies were picked from streaked LB/ampicillin/chloramphenicol plates. Cultures were grown at 37° C. for 4-6 hours, were cooled to 15° C. and expression was induced overnight with 200 uM isopropyl 1-thio-β-D-galactopyranoside. Cells were pelleted and resuspended in Ni-lysis buffer (50 mM Na2HPO4, 300 mM NaCl, 10 mM Imidazole, 0.05% Tween-20) supplemented with Complete Mini protease inhibitor tablets (Roche, Mannheim, Germany) and […], and then sonicated. The cells were again pelleted and the supernatant was incubated with complete His-Tag purification resin (Roche, Mannheim, Germany) for 5 hours at 4° C. The resin was washed with Ni-wash buffer (50 mM Na2HPO4, 300 mM NaCl, 20 mM Imidazole, 0.05% Tween-20) and eluted with Ni-elution buffer (50 mM Na2HPO4, 300 mM NaCl, 250 mM Imidazole, 0.05% Tween-20). The elution was then incubated with tobacco etch virus protease overnight at 4° C. The following day the elution was incubated with the γ-phosphate ATP sepharose resin for 30 minutes at 4° C. Next the resin was washed with ATP-wash buffer (50 mMTris-HCl, 60 mM MgCl2, 60 mM KCl, 10 mM Citrate) supplemented with 1 mM DTT and then ATP-wash buffer supplemented with 2 mM ATP was added to the resin to elute the protein. The final elutions were concentrated in Amicon Ultra-15 Centrifugal Filter Units (EMD Millipore, Billerica, Mass.) and buffer exchanged into 25 mM HEPES, 5 mM MgCl2, 10 mM KCl (pH 7.5) and stored at −80° C. until use.
Thermofluor Assay: SYPRO orange (Molecular Probes, Eugene, Oreg.) was diluted 1:1000 in 25 mM HEPES, 5 mM MgCl2, 10 mM KCl (pH 7.5) and purified Hsp70i, Hsc70, Hsp70i C306, or Hsp90, was then added to a final dilution of 0.04 mg/ml. Where indicated 0.001% or 0.01% Triton X-100 (Sigma) was also added. The indicated compound or DMSO was then added at the specified concentration and each sample was added as 5 replicates to a 384 well plate (BioRad, Hercules, Calif.). A melt curve protocol (25° C. to 90° C., increasing 0.5° C. and a plate reading every 30 seconds) was run on a CFX384 Touch™ Real-Time PCR Detection System (BioRad). To determine the midpoint of the protein unfolding transition or Tm, GraphPad Prisim4 (La Jolla, Calif.) was used to normalize the melt curve and to calculate the first derivate of the melt curve, with the steepest point of the slope being the Tm.
On the technique in general: Differential scanning fluorimetry follows unfolding on heating by fluorescence.

The target in data set [3] is T1, Hsp70i. The data set can be described thus: HS-72 affinity resin pull-down from HEK293T lysate, Hsp70i. Particulars: free HS-72 incubated with lysate. Format: binding. Details: endogenous in cells; host or cells: HEK 293T. The method, then:
HS-72 specifically targets Hsp70i over other members of the Hsp70 superfamily. To test the selectivity of the HS-72 scaffold against the broader purinome, HEK 293T cell extracts or pig bladder tissue lysates were applied to the ATP resin and eluted with HS-72, as described for FLECS. The eluates were characterized by SDS-PAGE, silver stain, and MS analysis. […] To more thoroughly determine the specificity of HS-72 for Hsp70i, the HEK 293T eluates were also analyzed for other Hsp70 family members Hsc70, Grp78, and Grp75, as well as Hsp90 by Western blot. […] Next, an affinity resin was synthesized using the HS-72 scaffold, similar to a previously described affinity resin targeting Hsp90 [Hughes et al. (2012). […] Bioorganic & medicinal chemistry 20, 3298-3305]. HEK 293T cell lysate was applied to the resin and subjected to several washes. To confirm selectivity of the HS-72 affinity resin for Hsp70i, free HS-72 was incubated with lysate to inhibit Hsp70i binding to the affinity resin. The linker on the resin was cleaved using sodium dithionite and the samples were subjected to SDS-PAGE and analyzed by Western blot, silver stain, and mass spectrometry. […] These studies identified HS-72 as the first example of a small molecule that can selectively discriminate Hsp70i from other members of the Hsp70 superfamily.

Data set [4] is described as follows: HS-72 in vivo MTD. As to conditions: wild-type mice, IP biweekly for 35 days, up to 30 mg/kg. The method, then: as §1
The target in data set [5] is Hsp70 (Homo sapiens, UniProt P0DMV8). The data set can be described thus: Single turnover ATPase assay. Format: biochemical. Particulars: presence or absence of co-chaperone Hlj1. As for the experimental part: ATPase Assay: Single turnover assays were performed as previously described [Fewell et al. (2004). Small molecule modulators of endogenous and co-chaperone-stimulated Hsp70 ATPase activity. The Journal of biological chemistry 279, 51131-51140]. Briefly, Hsp70 was incubated with ^32P-ATP and cold ATP in single turnover buffer (1M KCl, 250 mM HEPES, 110 mM MgOAc) for 30 minutes on ice. ^32P-ATP-Hsp70 complex was purified from a Nick Column-Sephadex G-50 (Amersham, Piscataway, N.J.). Glycerol was added and the complexes were stored at −80° C. To determine ATP hydrolysis, a sample was thawed and added to single turnover buffer containing Hlj1 and compound added after 60 seconds. At the specified time points an aliquot of the reaction is removed, added to stop solution (2M LiCl, 4M formic acid, 36 mM ATP) and spotted on a TLC plate. The percentage of ATP hydrolyzed to ADP and P, was then calculated.
Hsp70, sequence (P0DMV8 whole entry): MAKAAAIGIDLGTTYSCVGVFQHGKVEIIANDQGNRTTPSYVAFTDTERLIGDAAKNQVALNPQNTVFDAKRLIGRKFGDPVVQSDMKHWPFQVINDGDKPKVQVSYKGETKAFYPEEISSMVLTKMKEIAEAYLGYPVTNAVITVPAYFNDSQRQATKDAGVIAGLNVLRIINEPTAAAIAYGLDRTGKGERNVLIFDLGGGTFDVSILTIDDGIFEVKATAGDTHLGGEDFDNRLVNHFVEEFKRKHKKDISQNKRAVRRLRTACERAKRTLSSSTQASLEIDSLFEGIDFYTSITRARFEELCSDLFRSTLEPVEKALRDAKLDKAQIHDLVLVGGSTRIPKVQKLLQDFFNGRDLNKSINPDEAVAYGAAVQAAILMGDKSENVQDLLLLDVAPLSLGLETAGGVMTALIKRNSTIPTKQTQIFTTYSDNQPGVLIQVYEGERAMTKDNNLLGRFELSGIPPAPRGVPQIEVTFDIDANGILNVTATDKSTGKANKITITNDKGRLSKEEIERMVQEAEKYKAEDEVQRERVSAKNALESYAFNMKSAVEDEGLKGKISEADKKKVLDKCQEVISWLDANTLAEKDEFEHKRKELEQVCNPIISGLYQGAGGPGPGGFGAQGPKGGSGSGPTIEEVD

T1 sequence (P0DMV8 whole entry, the tested form may be a part): as the sequence (P0DMV8 whole entry) above

Consider `CCCn1c(NC(=O)[C@H]2CCCN(c3cnccn3)C2)nc2ccccc21` [HS-72, (S)—N-(1-propyl-1H-benzo[d]imidazol-2-yl)-1-(pyrazin-2-yl)piperidine-3-carboxamide], for which, in data set [1], the complete blood count entry is “no effect on complete blood count”, the kidney function result is recorded as “no effect on kidney function” and the liver function result was “no effect on liver function”. Further, in data set [2] (10 uM), the “decrease of ATP bound Hsp70i Tm” value came out at 0.5 °C and the “decrease of the Tm of Hsp70i” value worked out at 0.1 °C. Further, in data set [2] (100 uM), the “decrease of ATP bound Hsp70i Tm” value worked out at 1 °C and the “decrease of the Tm of Hsp70i” value worked out at 0.5 °C. For the same compound, the “Tm of Hsp70 with compound alone vs. compound plus detergent” value in data set [2] (100 uM, 0.001% or 0.01% Triton) was “no difference”. In data set [2] (absence or presence of ATP), the “effect on Hsp70i Tm in combination with PES” value is “no synergistic or additive effect” and the “effect on Hsp70i Tm in combination with VER” value is recorded as “no observed synergistic or additive effect”. In addition, in data set [2] (compound alone), the “effect on Tm of Hsp70i” value is “decreased in a dose dependent manner”. In addition, in data set [2] (in presence of ADP), the “effect on Tm of ADP Hsp70i” value is “does not change”. Further, the “competition of Hsp70i binding to the affinity resin by free compound” value in data set [3] is listed as “able to block this interaction”. Besides, the “tolerability in dose escalation” value in data set [4] is “no adverse events, reduction in body weight, or altered behavior”. For the same compound, the “effect on Hsp70 ATPase activity” value in data set [5] was “does not reduce”.

The record behind these values is patent US10000469B2, “Heat shock protein 70 (hsp-70) receptor ligands” (Duke University, priority 2014, dated 2018).
